Assay [1] has as its system Eggs of the beet armyworm (Spodoptera exigua). As to the kind of experiment: beet armyworm egg (ovicidal) test, % eggs failing to hatch. In kind it is in vivo. To be noted: 72 h, three days, read-out: % Control (% eggs failing to hatch); for mortality at 1 %: 1% in acetone; for mortality at 200 ppm: 200 ppm in acetone. On the procedure:
Eggs of the beet armyworm (Spodoptera exigua), laid on cellophane discs each containing 50-75 eggs, were placed in petri dishes and lightly sprayed with 1% concentrations of the indicated compounds in acetone solution. Three days later, percent control (% eggs failing to hatch) was determined.
Eggs of the beet armyworm (Spodoptera exigua), laid on cellophane discs each containing 50-75 eggs, were placed in petri dishes and lightly sprayed with 200 ppm concentration of the indicated compounds in acetone solution. Three days later, percent control (% eggs failing to hatch) was determined.

The test system of assay [2] is adult cotton boll weevils (Anthonomus grandis). As to the kind of experiment: adult cotton boll weevils spray test. In kind it is in vivo. The conditions noted are these: 1% acetone solution, 24 hours. As to the method: Five adult cotton boll weevils (Anthonomus grandis) were confined in a 4-oz. wide mouth jar. These were sprayed with a 1% acetone solution of the indicated compounds. Percent mortality after 24 hours is set forth below.

A further assay concerns adult houseflies. The assay is described as follows: adult houseflies spray test. In kind it is in vivo, housefly. The conditions noted are these: Musca domestica; 1% acetone solutions, 24 hours. An excerpt:
Twenty adult houseflies were confined in each of several cylindrical stainless steel cages (7.5 cm D×4 cm high) with wire screens of the ends. These were sprayed with 1% acetone solutions of the indicated compounds.

The next assay has as its system Pythium. As to the kind of experiment: Pythium infested soil test, cotton. In kind it is in vivo. The conditions noted are these: 1.5 kg/ha, 8 days. An excerpt: Pythium infested soil was placed in a 900 cc cup. Compounds of this invention were mixed at a rate of 1.5 kg/ha in a section 2" wide×2" deep×4" long to simulate an in-the-row application. Five cotton seeds were planted in the treated soil. After 8 days, the cotton plants were removed and rated for disease control.

A further assay deals with Rhizoctonia solani. The assay is described as follows: Rhizoctonia solani infested soil test, cotton. In kind it is in vivo. The conditions noted are these: 192 h, 1.5 kg/ha, 8 days. From the text:
Rhizoctonia solani-infested soil was placed in a 900 cc cup. Compounds of this invention were mixed at a rate of 1.5 kg/ha in a section 2" wide×2" deep×4" long to simulate an in-the-row application. Five cotton seeds were planted in the treated soil. After 8 days, the cotton plants were removed and rated for disease control.

Assay [3] relates to Venturia inaequalis. As to the kind of experiment: apple scab preventive test. It is filed as in vivo. To be noted: 10-12 days. On the procedure:
(§1) Compounds of this invention are dissolved in acetone in an amount equal to 6% of the final volume and then suspended at a concentration of 20 ppm in purified water containing 25 ppm of the surfactant Alkanol® XC (sodium alkyl naphthalene sulfonate). This suspension is sprayed to the point of run-off on apple seedlings. The following day, the plants are inoculated with a spore suspension of the fungus Venturia inaequalis and incubated in a growth room for 10-12 days. Disease ratings are then made. […] Phytotoxicity in the form of foliar burn was observed on some of the plants in association with disease control.

Assay [4] deals with Venturia inaequalis. As to the kind of experiment: apple scab residual wash-off test. It is filed as in vivo. The conditions noted are these: 1/2 inch simulated rainfall, 10-12 days. As to the method:
as §1, with “day, 1/2 inch of simulated rainfall is applied to the foliage of the plants. When the foliage is dry,” for “day,”, “on” for “on some of”

The subject of assay [5] is Venturia inaequalis. As to the kind of experiment: apple scab photostability test. In kind it is in vivo. To be noted: xenon arc 3500 foot candles 16 hours, 10-12 days. As to the method:
as §1, with “seedlings. When the foliage is dry, the plants are exposed to 3500 foot candles of light from a xenon arc source for a period of 16 hours. This light source approximates the spectrum of natural sunlight, and is used to assess photostability of the compounds of this invention on plant foliage.” for “seedlings.”

Assay [6] has as its system Erysiphe cichoracearum. The assay is described as follows: cucumber powdery mildew preventive test. To be noted: Golovinomyces cichoracearum, 168 h, 7 days. In kind it is in vivo. As to the method:
as §1, with “cucumber” for “apple”, “Erysiphe cichoracearum” for “Venturia inaequalis”, “7” for “10-12”, “burn or growth reduction” for “burn”

For a further assay, the system named is Erisyphe cichoracearum. The assay is described as follows: cucumber powdery mildew curative test. The conditions noted are these: Cucumis sativus, 144 h, sprayed day after inoculation, additional 6 days. It is filed as in vivo. From the text:
Cucumber plants are inoculated with a spore suspension of the fungus Erisyphe cichoracearum and in a growth room overnight. The following day, the plants are sprayed to the point of run-off with a suspension prepared by dissolving compounds of this invention in acetone in an amount equal to 6% of the final volume and then suspended at a concentration of 20 ppm in purified water containing 25 ppm of the surfactant Alkanol® XC (sodium alkyl naphthalene sulfonate). Plants are returned to the growth room for an additional 6 days when disease ratings are then made. […] Phytotoxicity in the form of foliar burn or growth reduction was observed on some of the plants in association with disease control.

The test system of assay [7] is Erysiphe cichoracearum. The assay is described as follows: cucumber powdery mildew residual wash-off test. It is filed as in vivo. To be noted: Golovinomyces cichoracearum, 168 h, 1/2 inch simulated rainfall, 7 days. On the procedure:
Compounds of this invention are dissolved in acetone in an amount equal to 6% of the final volume and then suspended at a concentration of 20 ppm in purified water containing 25 ppm of the surfactant Alkanol® XC (sodium alkyl naphthalene sulfonate). This suspension is sprayed to the point of run-off on cucumber seedlings. The following day, 1/2 inch of simulated rainfall is applied to the foliage of the plants. When the foliage is dry, the plants are inoculated with a spore suspension on the fungus Erysiphe cichoracearum and incubated in a growth room for 7 days. Disease ratings are then made.

The test system of assay [8] is Erysiphe cichoracearum. As to the kind of experiment: cucumber powdery mildew photostability test. The conditions noted are these: Golovinomyces cichoracearum, 168 h, xenon arc 3500 foot candles 16 hours, 7 days. In kind it is in vivo. On the procedure:
Compounds of this invention are dissolved in acetone in an amount equal to 6% of the final volume and then suspended at a concentration of 20 ppm in purified water containing 25 ppm of the surfactant Alkanol® XC (sodium alkyl naphthalene sulfonate). This suspension is sprayed to the point of run-off in cucumber seedlings. When the foliage is dry, the plants are exposed to 3500 foot candles of light from a xenon arc source for a period of 16 hours. This light source approximates the spectrum of natural sunlight, and is used to assess photostability of the compounds of this invention on plant foliage. The following day, the plants are inoculated with a spore suspension of the fungus Erysiphe cichoracearum and incubated in a growth room for 7 days. Disease ratings are then made.

The subject of assay [9] is Puccinia graminis var. tritici. As to the kind of experiment: whole plant or invertebrate. It is filed as in vivo. To be noted: 192 h, read-out: % control wheat rust in preventive test.
The subject of assay [10] is Puccinia graminis var. tritici. As to the kind of experiment: whole plant or invertebrate. It is filed as in vivo. To be noted: 192 h, read-out: % control wheat rust in residual wash-off test.
In assay [11] the test system is Puccinia graminis var. tritici. The assay is described as follows: whole plant or invertebrate. In kind it is in vivo. To be noted: 192 h, read-out: % control wheat rust in a photostability test.
The test system of assay [12] is Phytophthora infestans. As to the kind of experiment: whole plant or invertebrate. It is filed as in vivo. The conditions noted are these: in Solanum lycopersicum, 96 h, read-out: % control tomato late blight in a residual wash-off test.
The test system of assay [13] is Phytophthora infestans. As to the kind of experiment: whole plant or invertebrate. To be noted: in Solanum lycopersicum, 96 h, read-out: % control tomato late blight in a photostability test. It is filed as in vivo.
The subject of assay [14] is Phytophthora infestans. In kind it is in vivo. The conditions noted are these: 20 ppm, 4 days.

Like-named read-outs stand apart in the source and are kept apart here.

As for `CCCCN(SN(c1cc(C(F)(F)F)ccc1Cl)c1c([N+](=O)[O-])cc([N+](=O)[O-])cc1C(F)(F)F)S(=O)(=O)N(C)C`, the mortality at 1 % (in [1]; in assay [2]; in the assay with adult houseflies) was 100% each time. Besides, the “% control Pythium” value in the assay with Pythium came out at 0%. Further, the pest or weed control at 1500 g/ha in the assay on Rhizoctonia solani was found to be 0%. For the same compound, the pest or weed control at 20 ppm is 100% in the assay on Venturia inaequalis [3]; 100% in the assay on Venturia inaequalis [4]; 0% with Venturia inaequalis [5]; 100% in the assay on Erysiphe cichoracearum [6]; 99% in the assay with Erisyphe cichoracearum; 98% in the assay on Erysiphe cichoracearum [7]. Further, the pest or weed control at 20 ppm with Erysiphe cichoracearum [8] was 80%; in assay [9], 100%; in [10] it was 90%; in assay [11] it was 80%; in the assay with Phytophthora infestans [12] it was 93%; in the assay on Phytophthora infestans [13], 90%.
Regarding `CN(SN(c1cc(C(F)(F)F)ccc1Cl)c1c([N+](=O)[O-])cc([N+](=O)[O-])cc1C(F)(F)F)S(=O)(=O)c1ccc2ccccc2c1`, the mortality at 1 % (in assay [1]; in assay [2]; in the assay on adult houseflies) was 100% throughout. Further, the “% control Pythium” value with Pythium was found to be 0%. Besides, the pest or weed control at 1500 g/ha with Rhizoctonia solani came to 0%. Moreover, the pest or weed control at 20 ppm was 50% with Venturia inaequalis [3]; 100% in the assay with Venturia inaequalis [4]; 0% with Venturia inaequalis [5]; 100% with Erysiphe cichoracearum [6]; 50% in the assay on Erisyphe cichoracearum; 85% in the assay with Erysiphe cichoracearum [7]. The pest or weed control at 20 ppm came out at 75% in the assay on Erysiphe cichoracearum [8]; 100% in [9]; 100% in assay [10]; 100% in assay [11]; 100% in the assay on Phytophthora infestans [12]; 100% with Phytophthora infestans [13].
With `Cc1ccc(S(=O)(=O)N(C)SN(c2c(F)cc(F)cc2F)c2c([N+](=O)[O-])cc([N+](=O)[O-])cc2C(F)(F)F)cc1`, the “% control Pythium” value in the assay on Pythium came out at 100%. Moreover, the pest or weed control at 1500 g/ha in the assay with Rhizoctonia solani was 70%. Also, the pest or weed control at 20 ppm in the assay on Venturia inaequalis [3] is 100%; with Venturia inaequalis [4], 100%; in the assay on Venturia inaequalis [5], 80%; with Erysiphe cichoracearum [6] it was 100%; with Erisyphe cichoracearum, 99%; in the assay with Erysiphe cichoracearum [7], 100%. Further, the pest or weed control at 20 ppm in the assay with Erysiphe cichoracearum [8] was found to be 100%; in [9], 100%; in assay [10], 97%; in assay [11] it was 70%; in the assay with Phytophthora infestans [12], 100%; in the assay with Phytophthora infestans [13], 100%. For the same compound, the “% control tomato late blight in a preventive test” value in the assay with Phytophthora infestans [14] worked out at 100%.
Regarding `CN(SN(c1cc(C(F)(F)F)ccc1Cl)c1c([N+](=O)[O-])cc([N+](=O)[O-])cc1C(F)(F)F)S(=O)(=O)c1ccc(Cl)cc1` [4-chloro-N-[N-(2-chloro-5-trifluoromethylphenyl)-N-(2,4-dinitro-6-trifluoromethylphenyl)aminothio]-N-methylbenzenesulfonamide], the mortality at 200 ppm in [1] came to 100%.
Consider `O=C1CCCN1SN(c1cc(C(F)(F)F)ccc1Cl)c1c([N+](=O)[O-])cc([N+](=O)[O-])cc1C(F)(F)F`, for which the mortality at 1 % (in assay [1]; in assay [2]; with adult houseflies) was 100% each time. For the same compound, the “% control Pythium” value in the assay on Pythium was found to be 50%. Also, in the assay on Rhizoctonia solani, the pest or weed control at 1500 g/ha worked out at 90%. Moreover, the pest or weed control at 20 ppm in the assay on Venturia inaequalis [4] is 75%; in the assay with Venturia inaequalis [5], 50%; in the assay on Erysiphe cichoracearum [6], 100%; in the assay with Erisyphe cichoracearum it was 100%; in the assay on Erysiphe cichoracearum [7] it was 30%; with Erysiphe cichoracearum [8], 97%. Also, the pest or weed control at 20 ppm amounted to 100% in [9], 100% in assay [10], 100% in [11] and 50% in the assay on Phytophthora infestans [12].
Consider `COCCN(SN(c1cc(C(F)(F)F)ccc1Cl)c1c([N+](=O)[O-])cc([N+](=O)[O-])cc1C(F)(F)F)S(=O)(=O)c1ccc(C)cc1` [N-[N-[2-chloro-5-(trifluoromethyl)phenyl]-N-[2,4-dinitro-6-trifluoromethylphenyl]aminothio]-N-(2-methoxyethyl)-4-methylbenzenesulfonamide], for which the mortality at 200 ppm in assay [1] stood at 100%.

The values are drawn from patent US4309425A (priority 1980, dated 1982).
